This note sets out measurements from US9487489B2, “Halogen-substituted pyrazole derivatives as pest-control agents” (BAYER CROPSCIENCE AKTIENGESELLSCHAFT, priority 2013, dated 2016).

As a reminder, the logP is a log measure of how a compound divides between an organic and an aqueous phase.

The subject of data set [1] is caterpillars of the armyworm (Spodoptera frugiperda). As to the kind of experiment: Spodoptera frugiperda spray test (SPODFR). It counts as in vivo. The following applies: maize leaf discs, after 7 days. The procedure:
I. Spodoptera frugiperda-spray Test (SPODFR)
(§1) Solvent: 78.0 parts by weight of acetone
(§2) • 1.5 parts by weight of dimethylformamide Emulsifier: alkylaryl polyglycol ether
(§3) To produce a suitable preparation of active compound, 1 part by weight of active compound is dissolved using the stated parts by weight of solvent and made up with water comprising an emulsifier concentration of 1000 ppm until the desired concentration is reached. To produce further test concentrations, the preparation is diluted with emulsifier-containing water.
Leaf discs of maize (Zea mays) are sprayed with an active compound preparation of the desired concentration and, after drying, populated with caterpillars of the armyworm (Spodoptera frugiperda).
After 7 days, the efficacy in % is determined. 100% means that all of the caterpillars have been killed; 0% means that none of the caterpillars have been killed.

The test system of data set [2] is larvae of the mustard beetle (Phaedon cochleariae). As to the kind of experiment: Phaedon cochleariae spray test (PHAECO). The class given is in vivo. The following applies: Chinese cabbage leaf discs, after 7 days. On the procedure: H. Phaedon cochleariae-spray Test (PHAECO)
Solvents: 78.0 parts by weight of acetone
as §2, §3
After 7 days, the efficacy in % is determined. 100% means that all of the beetle larvae have been killed; 0% means that none of the beetle larvae have been killed.

Data set [3] can be described thus: logP determination by HPLC on a reversed-phase column (C18), EEC Directive 79/831 Annex V.A8. The class given is physicochemical. The conditions noted are these: HPLC on reversed-phase column (C18), acetonitrile/water with formic acid, EEC Directive 79/831 Annex V.A8. The procedure:
(§4) ^a) Note regarding the determination of the logP values and mass detection: The determination of the given logP values was carried out in accordance with EEC Directive 79/831 Annex V.A8 by HPLC (High Performance Liquid Chromatography) on a reversed-phase column (C18). Agilent 1100 LC system; 50*4.6 Zorbax Eclipse Plus C18 1.8 micron; mobile phase A: acetonitrile (0.1% formic acid); mobile phase B: water (0.09% formic acid); linear gradient from 10% acetonitrile to 95% acetonitrile in 4.25 min, then 95% acetonitrile for a further 1.25 min; oven temperature 55° C.; flow rate: 2.0 ml/min. Mass detection is carried out via an Agilend MSD system.
as §4, with “^*)” for “^a)”

For data set [4], the system named is greenhouse red spider mite (Tetranychus urticae). As to the kind of experiment: Tetranychus urticae spray test, OP-resistant (TETRUR). The conditions noted are these: bean leaf discs, after 6 days. The class given is in vivo. On the procedure:
J. Tetranychus urticae-spray Test, OP-Resistant (TETRUR)
as §1, §2, §3
Discs of bean leaves (Phaseolus vulgaris) which are infested by all stages of the greenhouse red spider mite (Tetranychus urticae) are sprayed with an active compound preparation of the desired concentration.
After 6 days, the efficacy in % is determined. 100% means that all of the spider mites have been killed; 0% means that none of the spider mites have been killed.

The subject of data set [5] is adult cat fleas (Ctenocephalides felis). Kind of data set: Ctenocephalides felis in vitro contact test with adult cat fleas (T1). The following applies: after 48 h. The procedure: T1. Ctenocephalides felis—in vitro Contact Tests with Adult Cat Fleas
For the coating of the test tubes, initially 9 mg of active compound are dissolved in 1 ml of acetone p.a. and then diluted with acetone p.a. to the desired concentration. By turning and rocking on an orbital shaker (2 h of rocking rotation at 30 rpm), 250 μl of the solution are distributed homogeneously on the internal walls and the floor of a 25 ml test tube. At 900 ppm active compound solution and 44.7 cm^2 internal surface, an area dose of 5 μg/cm^2 is achieved for homogeneous distribution.
After evaporation of the solvent, the tubes are populated with 5-10 adult cat fleas (Ctenocephalides felis), sealed with a perforated plastic lid and incubated in a horizontal position at room temperature and ambient humidity. After 48 h, the efficacy is determined. To this end, the test tubes are stood upright and the fleas are knocked to the floor of the tube. Fleas which remain motionless on the floor or move in an uncoordinated manner are considered to be dead or moribund.
An efficacy of 100% means that all fleas were dead or moribund. 0% efficacy means that none of the fleas had been damaged.

The structures appear in SMILES notation.

On to `CC#CC(C)NC(=O)c1cc(-c2cnn(-c3c(C(F)(F)F)c(C(F)(F)C(F)(F)F)nn3C)c2)ccc1Cl` (stereo not shown) [Ic-198], for which the efficacy in % in data set [1] (application rate 500 g/ha), in data set [2] (application rate 500 g/ha) and in data set [4] (application rate 500 g/ha) was 100% each time. The logP in data set [3] turned out to be 4.27.

As to `Cn1nc(C(F)(F)C(F)(F)F)c(C(F)(F)F)c1-n1cc(-c2ccc(Cl)c(C(=O)NC3(C#N)CC3)c2F)cn1` [Ic-107], the efficacy in % in data set [1] (application rate 500 g/ha), in data set [2] (application rate 500 g/ha) and in data set [4] (application rate 500 g/ha) was 100% in each case. Moreover, the “efficacy (dead or moribund fleas)” value in data set [5] (application rate 1 μg/cm^2) and in data set [5] (application rate 5 μg/cm^2) was 100% in each case.

In the case of `Cn1nc(C(F)(F)F)c(CO)c1-n1cc(-c2ccc(Cl)c(C(=O)NC3CC3)c2)cn1` [Ic-69], the efficacy in % turned out to be 83% in data set [2] (application rate 500 g/ha) and 90% in data set [4] (application rate 500 g/ha). For the same compound, the log partition coefficient (logP) in data set [3] is given as 2.15.

As for `Cn1nc(C(F)(F)C(F)(F)F)c(C(F)(F)F)c1-n1cc(-c2ccc(Cl)c(C(=O)NC3CC3(Cl)Cl)c2)cn1` (stereo not shown) [Ic-184], the efficacy in % in data set [1] (application rate 500 g/ha), in data set [2] (application rate 500 g/ha) and in data set [4] (application rate 500 g/ha) was 100% in each case. For the same compound, the lipophilicity (logP) in data set [3] is recorded as 4.34.

In the case of `Cn1nc(C(F)(F)C(F)(F)F)c(C(F)(F)F)c1-n1cc(-c2ccc(Cl)c(C(=O)NC3CCC3[S+](C)[O-])c2)cn1` (stereo not shown) [Ic-125], the efficacy in % in data set [1] (application rate 100 g/ha) is listed as 83%; in data set [2] (application rate 100 g/ha) it was 100%; in data set [4] (application rate 100 g/ha) it was 100%. This compound returned a logP in data set [3] of 3.17.

For `Cn1nc(C(F)(F)C(F)(F)F)c(C(F)(F)F)c1-n1cc(-c2ccc(Cl)c(C(=O)NC3(C#N)CSC3)c2)cn1` [Ic-128], the efficacy in % in data set [1] (application rate 100 g/ha), in data set [2] (application rate 100 g/ha) and in data set [4] (application rate 100 g/ha) was 100% each time. This compound showed a logP in data set [3] of 4.38.

Consider `Cn1nc(C(F)(F)F)c(C(F)(F)F)c1-n1cc(-c2ccc(Cl)c(C(=O)Nc3ccccc3)c2)cn1` [Ic-135], for which the efficacy in % was determined as 100% in data set [1] (application rate 100 g/ha), 83% in data set [2] (application rate 100 g/ha) and 100% in data set [4] (application rate 100 g/ha). Besides, the logP in data set [3] came out at 4.1.

As to `C#CC(C)NC(=O)c1cc(-c2cnn(-c3c(C(F)(F)F)c(C(F)(F)C(F)(F)F)nn3C)c2)ccc1Cl` (stereo not shown) [Ic-193], the efficacy in % in data set [1] (application rate 500 g/ha), in data set [2] (application rate 500 g/ha) and in data set [4] (application rate 500 g/ha) was 100% in each case. This compound also had a log partition coefficient (logP) in data set [3] of 3.97.

Consider `Cn1nc(C(F)(F)C(F)(F)F)c(C(F)(F)F)c1-n1cc(-c2ccc([S+](C)[O-])c(C(=O)NC3CC3)c2)cn1` (stereo not shown) [Ic-189], for which the efficacy in % in data set [2] (application rate 100 g/ha) and in data set [4] (application rate 100 g/ha) was 100% in each case. Besides, the logP in data set [3] is recorded as 3.19.

In data set [3], `Cn1nc(C(F)(F)C(F)(F)F)c(C(F)(F)F)c1-n1cc(-c2ccc(Cl)c(C(=O)NC3CCC3C[S+](C)[O-])c2)cn1` (stereo not shown) [Ic-123] displayed a log partition coefficient (logP) of 3.09. For the same compound, the efficacy in % in data set [4] (application rate 100 g/ha) is listed as 100%.

On to `Cn1nc(C(F)(F)F)c(C(F)(F)F)c1-n1cc(-c2ccc(Cl)c(C(=O)NCCF)c2)cn1` [Ic-168], for which the efficacy in % is recorded as 83% in data set [1] (application rate 100 g/ha), 100% in data set [2] (application rate 100 g/ha) and 100% in data set [4] (application rate 100 g/ha). This compound showed a logP in data set [3] of 3.24.

`Cn1nc(C(F)(F)C(F)(F)F)c(C(F)(F)F)c1-n1cc(-c2ccc(Cl)c(C(=O)NC3(C)CC3)c2)cn1` [Ic-200]: the efficacy in % in data set [1] (application rate 500 g/ha), in data set [2] (application rate 500 g/ha) and in data set [4] (application rate 500 g/ha) was 100% throughout. For the same compound, the log partition coefficient (logP) in data set [3] came to 4.12.

For `Cn1nc(C(F)(F)F)c(CO)c1-n1cc(-c2ccc(Cl)c(C(=O)NC3(C#N)CC3)c2)cn1` [Ic-104], the efficacy in % in data set [2] (application rate 100 g/ha) and in data set [4] (application rate 100 g/ha) was 100% in each case. The compound also came in with a lipophilicity (logP) in data set [3] of 2.13.

As for `CCOC1C(C)C1NC(=O)c1cc(-c2cnn(-c3c(C(F)(F)F)c(C(F)(F)C(F)(F)F)nn3C)c2)ccc1Cl` (stereo not shown) [Ic-183], the efficacy in % in data set [1] (application rate 500 g/ha), in data set [2] (application rate 500 g/ha) and in data set [4] (application rate 500 g/ha) was 100% in each case. The same compound registered a logP in data set [3] of 4.34.

Take `CSC1CCC1NC(=O)c1cc(-c2cnn(-c3c(C(F)(F)F)c(C(F)(F)C(F)(F)F)nn3C)c2)ccc1Cl` (stereo not shown) [Ic-119]: the efficacy in % in data set [1] (application rate 100 g/ha) was 83%; in data set [2] (application rate 100 g/ha) it was 100%; in data set [4] (application rate 100 g/ha) it was 100%. The compound further showed a logP in data set [3] of 4.52.

`Cn1nc(C(F)(F)C(F)(F)F)c(C(F)(F)F)c1-n1cc(-c2cc(C(=O)NC3CC3)cc3c2OC(F)(F)O3)cn1` [Ic-171]: the efficacy in % in data set [1] (application rate 500 g/ha) is on record as 100%; in data set [2] (application rate 500 g/ha), 100%; in data set [4] (application rate 500 g/ha), 90%.

As to `CCOC1(NC(=O)c2cc(-c3cnn(-c4c(C(F)(F)F)c(C(F)(F)C(F)(F)F)nn4C)c3)ccc2Cl)CC1` [Ic-176], the efficacy in % in data set [1] (application rate 500 g/ha), in data set [2] (application rate 500 g/ha) and in data set [4] (application rate 500 g/ha) was 100% each time. The compound also gave a log partition coefficient (logP) in data set [3] of 4.08.

For `Cc1nn(-c2c(C(F)(F)F)c(C(F)(F)C(F)(F)F)nn2C)c(C)c1-c1ccc(Cl)c(C(=O)NC2CC2)c1` [Ic-9], the logP in data set [3] amounted to 4.02. In data set [4] (application rate 100 g/ha), this compound returned an efficacy in % of 90%.

Regarding `Cn1nc(C(F)(F)F)c(C(F)(F)F)c1-n1cc(-c2ccc(Cl)c(C(=O)NCC(F)F)c2)cn1` [Ic-170], the efficacy in % in data set [1] (application rate 100 g/ha), in data set [2] (application rate 100 g/ha) and in data set [4] (application rate 100 g/ha) was 100% throughout. This compound also displayed a lipophilicity (logP) in data set [3] of 3.43.

For `Cn1nc(C(F)(F)F)c(C(F)(F)F)c1-n1cc(-c2ccc(Cl)c(C(=O)NC3CC3F)c2)cn1` (stereo not shown) [Ic-177], the efficacy in % in data set [1] (application rate 100 g/ha), in data set [2] (application rate 100 g/ha) and in data set [4] (application rate 100 g/ha) was 100% in each case. This compound also had a lipophilicity (logP) in data set [3] of 3.41.

As for `Cn1nc(C(F)(F)F)c(C(F)(F)F)c1-n1cc(-c2ccc(Cl)c(C(=O)NCC(F)(F)F)c2)cn1` [Ic-169], the efficacy in % in data set [1] (application rate 100 g/ha), in data set [2] (application rate 100 g/ha) and in data set [4] (application rate 100 g/ha) was 100% each time. In data set [3], this compound yielded a log partition coefficient (logP) of 3.71.

`Cc1ccc(-c2cnn(-c3c(C(F)(F)F)c(C(F)(F)C(F)(F)F)nn3C)c2)cc1C(=O)Nc1ccc(F)cc1` [Ic-131]: the efficacy in % in data set [1] (application rate 100 g/ha), in data set [2] (application rate 100 g/ha) and in data set [4] (application rate 100 g/ha) was 100% in each case. For the same compound, the lipophilicity (logP) in data set [3] was determined as 4.57.

On to `Cn1nc(C(F)(F)C(F)(F)F)c(C(F)(F)F)c1-n1cc(-c2cccc(C(=O)NC3(C#N)CC3)n2)cn1` [Ic-105], for which the efficacy in % in data set [1] (application rate 500 g/ha) worked out at 100%; in data set [2] (application rate 500 g/ha) it was 100%; in data set [4] (application rate 500 g/ha), 90%.

On to `Cn1nc(C(F)(F)C(F)(F)F)c(C(F)(F)F)c1-n1cc(-c2ccc(Cl)c(C(=O)NC3CCC3S(C)(=O)=O)c2)cn1` (stereo not shown) [Ic-124], for which the efficacy in % in data set [1] (application rate 100 g/ha), in data set [2] (application rate 100 g/ha) and in data set [4] (application rate 100 g/ha) was 100% each time. This compound gave a logP in data set [3] of 3.47.
